Laboratory results published in patent publication US7692011B2, “8-hydroxy and 8-mercapto quinazolinones” (Prana Biotechnology Limited, priority 2002, dated 2010).
Values after ≈ are worked out from the molar mass of the structure shown. Like-named read-outs stand apart in the source and are kept apart here.

How the values were obtained:
[1] = Assay 12 Turbidimetric solubility measurements; format: physicochemical; details: kinetic from dmso stock, nephelometry
Description: Turbidimetric Solubility Measurements
The solubility estimate was measured at both pH 2.0 and pH 6.5. This is within the pH range that can be anticipated along the proximal gastrointestinal tract in humans.
The compounds were dissolved in DMSO to appropriate concentrations and then spiked into either 0.01M HCl (approx. pH=2.0) or pH 6.5 isotonic phosphate buffer, the final DMSO concentration being 1%. Samples were then analysed via Nephelometry to determine a solubility range. [as per D. Bevan and R. S. Lloyd, Anal. Chem. 2000, 72, 1781-1787].

[2] = target: T1, Aβ 1-42 (Homo sapiens, UniProt P05067); assay: Assay 1 Fluorometric H2O2 assay: inhibition of hydrogen peroxide generation by Aβ in the presence of copper; format: biochemical; details: Aβ 1-42 with Cu-Gly, DCF fluorescence
T1 construct: The reaction solutions contained Aβ 1-42
Description: Assay 1. Fluorometric H2O2 Assay
A fluorometric assay was used to test the ability of a test compound to inhibit hydrogen peroxide generation by Aβ in the presence of copper based on dichlorofluoroscein diacetate (DCF; Molecular Probes, Eugene Oreg.). The DCF solution (5 mM) in 100% dimethyl sulphoxide (previously purged with argon for 1 hr at 20° C.) was deacetylated in the presence of 0.025M NaOH for 30 min and neutralised at pH 7.4 to a final concentration of 1 mM. Horseradish peroxidase ([…]) stock solution was prepared to 1 μM at pH 7.4. The reactions were carried out in PBS, pH 7.4 in a 96 well plate (total volume=250 μl/well). The reaction solutions contained Aβ 1-42 at concentrations in the range of 50 nM to 1 μM, copper-glycine chelate (Cu-Gly), was prepared by adding CuCl2 to glycine in the ratio of 1:6 and added to the Aβ in the proportion 2Cu-Gly: 1Aβ), reducing agents including dopamine (5 μM) or ascorbic acid, deacetylated DCF 100 μM, and HRP, 0.1 μM. 1-10 μM EDTA or another chelator may also be present as a control for free copper, but was not required for the assay to function. The reaction mixture was incubated at 37 C for 60 min. Catalase (4000 units/ml) and H2O2 (1-2.5 μM) standards in PBS pH 7.4 may be included as positive controls. Fluorescence was recorded using a plate reader with excitation and emission filters at […] respectively. H2O2 concentration may be established by comparing fluorescence with the H2O2 standards. Inhibition of Aβ H2O2 production was assayed by including a given concentration of test compound(s) in the test wells.

[3] = test system: Neuronal cortical cells treated with Aβ1-42; assay: Assay 3(c) Aβ neurotoxicity and Aβ neuroprotection (MTS); format: cell-based, mouse; details: 20 uM Aβ1-42, 4 days
Description: Primary Cortical Neuronal Cultures
Cortical cultures were prepared as previously described (White et al., 1998). Embryonic day 14 BL6Jx129sv mouse cortices were removed, dissected free of meninges and dissociated in 0.025% (wt/vol) trypsin. Dissociated cells were plated in 48 well culture plates at a density of 2×10^6 cells/mL in MEM with 25% (vol/vol) FCS and 5% (vol/vol) HS and incubated at 37° C., 2 hrs. Media was then replaced with Neurobasal media (Invitrogen Life Technologies) and B27 supplements (Invitrogen Life Technologies). Cultures were maintained at 37° C. in 5% CO2. Prior to experimentation, the culture medium was replaced with Neurobasal media and B27 minus antioxidants (Invitrogen Life Technologies).
(c) Assay for Aβ Neurotoxicity and Aβ Neuroprotection
Neuronal cortical cells were cultured for five days as per Assay 2. On day six the neurobasal (NB) media (Invitrogen Life Technologies) and B27 supplement (Invitrogen Life Technologies) were replaced with NB media and B27 supplement (no antioxidants). On day six, test compounds were individually added to the neuronal cell cultures:
(§1) The test compounds were dissolved in 100% DMSO to a concentration of 2.5 mM (10 mM if excess compound was weighed out per vial—then diluted to 2.5 mM). 2.5 mM stock solution was serially diluted 1 in 10 to give working solutions of 250 uM, 25 uM, 2.5 uM.
Aβ was initially dissolved in 20 mM NaOH to a concentration of 1 mM and sonicated for 5 minutes. The peptide was then diluted in H2O and 10×PBS to a final concentration of 200 uM Aβ in 1×PBS. The peptide was again sonicated for 5 minutes and then spun at 14000 rpm for 5 min and transferred to a fresh tube.
as §1, with “in 10 [in NB media and B27 (no antioxidants)] to give” for “in 10 to give”, “2.5 uM. Test compounds were not added directly to cells, instead they were added to a 48 well ‘Drug Plate’ as comprised below:” for “2.5 uM.”
Preparation of “Drug Plate”:
• Well 1: 515 ul NB+B27(no antioxidant)*+24 ul 25 uM test compound+60 ul Aβ diluent** • Well 2: 515 ul NB+B27(no antioxidant)+24 ul 250 uM test compound+60 ul Aβ diluent • Well 3: 515 ul NB+B27(no antioxidant)+24 ul test compound diluent***+60 ul Aβ1-42 • Well 4: 515 ul NB+B27(no antioxidant)+24 ul 2.5 uM test compound+60 ul Aβ1-42 • Well 5: 515 ul NB+B27(no antioxidant)+24 ul 25 uM test compound+60 ul Aβ1-42 • Well 6: 515 ul NB+B27(no antioxidant)+24 ul 250 uM test compound+60 ul […] • Well 7: 515 ul NB+B27(no antioxidant)+24 ul test compound diluent+60 ul Aβ1-42 diluent • Well 8: 600 ul NB+B27(no antioxidant) • N.B. 60 ul Aβ1-42 equals 20 ul Aβ1-42 per well equals 20 uM Aβ1-42
The Drug Plate was incubated at 37° C. for 15 mins. 200 ul of each well was added in triplicate to the corresponding cell plate. The cell plate was incubated at 37 C, for 4 days. • * NB media+B27 (no antioxidants), • ** Aβ diluent 2 mM NaOH, 1×PBS • *** PBT diluent 10% DMSO in NB+B27(no antioxidant) Completion of the Assay:
On the 4th day after treating the cells the assay is completed by adding MTS to the cells.

[4] = aqueous buffer, pH 6.5 isotonic phosphate buffer, 1% DMSO, read-out: Assay 12 Solubility at pH 6.5
[5] = simulated gastric fluid, 0.01 M HCl, pH 2.0, 1% DMSO, read-out: Assay 12 Solubility in 0.01 M HCl, pH 2.0

T1 sequence (P05067 672-713 limits assumed): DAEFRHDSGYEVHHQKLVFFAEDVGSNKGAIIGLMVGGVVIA

| Structure (SMILES) | solubility [1, 4] [mg/mL] | solubility [1, 5] [mg/mL] | IC50 [2] [µM] | Assay 3(c) Neuroprotection (% inhibition of Abeta toxicity) [3] [%] |
| --- | --- | --- | --- | --- |
| O=c1c2c(Cl)cc(Cl)c(O)c2ncn1C1CC1 [PBT-1061, 5,7-Dichloro-3-cyclopropyl-8-hydroxy-3H-quinazolin-4-one] | 0.0125 to 0.025 (≈ 46.1 to 92.2 µM) | 0.0031 to 0.0062 (≈ 11.4 to 22.9 µM) | 0.45 | 16 |
| O=c1c(-c2ccc(Cl)cc2)cnc2c(O)c(I)ccn12 [PBT-1063, 3-(4-Chlorophenyl)-9-hydroxy-8-iodopyrido[1,2-a]pyrimidin-4-one] | < 0.005 | < 0.01 | 0.62 | 3 |
| Oc1c(N2CCOCC2)ncc2cccnc12 [PBT-1053, 7-Morpholin-4-yl-[1,6]naphthyridin-8-ol] | > 0.2 | 0.05 to 0.1 (≈ 216 to 432 µM) | 0.63 | 11 |
